Data published in US12226410B2, “Methods for enhancing cellular clearance of pathological molecules via activation of the cellular protein ykt6” (NORTHWESTERN UNIVERSITY, priority 2019, dated 2025).

Experiments:
A53T iPSn = experiment: Measurement of neuron viability (neurofilament); assay type: cell-based, human; conditions: A53T iPSn analyzed at day 100; 5 nM, 14d
Description: FIGS. 6A, 6B, 6C, 6D, 6E, 6F, and 6G. FTIs enhance lysosomal GCase activity and reduce pathological a-syn by blocking ykt6 farnesylation. 6A) GCase activity in FTI-treated A53T iPSn at d80 (LNK-754 5 nM, 5d). 6B) GCase activity in FTI-treated A53T iPSn expressing empty vector (vect) or ykt6-CS (n=4). 6C) Lysosomal GCase activity was assessed in FTI-treated SHSY5Y cells transfected with scrambled or ykt6 shRNA (KD) (n=3). 6D) Quantification of Triton X-100 soluble (T-sol) a-syn by western blot from FTI-treated A53T iPSn (5 nM, 7d). *, non-specific band. (n=3). 6E) Quantification of insoluble a-syn from A53T iPSn as in D (n=3). 6F) Insoluble a-syn in FTI-treated H4 cells (5 nM, 5 days) transfected with either scrambled or ykt6 shRNA (n=6). 6G) Neuron viability was assessed in FTI-treated A53T iPSn (5 nM, 14d from d86-d100) by quantification of neurofilament protein. […]
Measurement of neuron viability. iPSC-neurons were seeded on a PDL/laminin coated 96 well plate and analyzed and treated with either lentivirus expressing ykt6 CS vs empty vector, or DMSO vs 5 nM FTI (LNK-754) for 14 days. […] Neurofilament intensity was determined using Image Studio software (version 2.1 Li-cor) and normalized to cell volume. Replicates represent values from four individual culture wells and were analyzed by Student's T-test using GraphPad Prism software V 6.0. […]

GCase = experiment: Analysis of post-ER GCase (endo H resistance) in FTI-treated cultures; assay type: cell-based, human; conditions: A53T iPSn and SHSY5Y cells
Description: FIGS. 5A, 5B, 5C, 5D, 5E, 5F, and 5G. Reducing farnesyl-ykt6 enhances SNARE assembly and improves the lysosomal targeting of GCase. 5A) Ykt6 membrane shift analysis of SH-SY5Y cells expressing GFP-ykt6 wt or CS (n=3). 5B) Co-IP of GFP-ykt6 and bet1 in A53T iPSn (n=3). 5C) Ykt6 membrane shift analysis in FTI-treated SH-SY5Y wt a-syn cells or A53T iPSn (5 nM farnesyltransferase inhibitors (FTI) LNK-754 (FTI-1) or LNK-3248 (FTI-2) for 5 days) (n=4). Sec22b was measured to assess specificity. 5D) SEC/western blot of FTI-1 treated SH-SY5Y cells. Quantification is shown below. 5E) Co-IP of GFP-ykt6 wt or mutant ykt6-SS, (cannot be palmitoylated or farnesylated) in FTI-treated SHSY5Y cells (5 nM LNK-754, 5d) (n=2). […]
FIGS. 14A, 14B, 14C, 14D, 14E, 14F, and 14G. […] 14A) Farnesylation of ykt6 was measured in SH-SY5Y cells expressing GFP-ykt6. […] Biotin was detected with streptavidin-conjugated IRDye800, and normalized to total levels of GFP-ykt6. […] Ykt6 complex levels eluting at ca. 120A were quantified on the right (n=2). […] 14E) Raw quantification data of LAMP2A immunofluorescence intensity of individual cells from H4 cells treated with FTI, +/−ykt6 KD. […] For all quantifications, values are the mean+/−SEM, *p<0.05.
Analysis of post-ER GCase. […] Endo H resistant bands migrating at 62-64 kDa were measured as post-ER forms of GCase, and normalized to GAPDH levels. […]

- mature, endo H-resistant GCase (GCase): significantly elevated
Compound: C#Cc1cccc(-c2cc(=O)n(C)c3ccc([C@](O)(c4ccc(Cl)cc4)c4cncn4C)cc23)c1 [LNK-754]
- neuron viability (A53T iPSn): improved neuron viability
